Values quoted from earlier work in patent US20210236687A1, “CANNABINOID-BASED ORAL HEMOSTATIC COMPOSITIONS” (Pac-Dent, Inc., priority 2020, published 2021).

Key:
[1] = tested on: MCP-2 chemokine and other proinflammatory cytokines; conditions: Petrosino et al. 2018; inhibition of production of MCP-2 chemokine and other proinflammatory cytokines
[2] = in vivo
[3] = tested on: methicillin-resistant Staphylococcus aureus strains (MRSA); conditions: European research
[4] = in vivo; remark: listed apart in the source
[5] = Evans 1991

CCCCCc1cc(O)c2c(c1)OC(C)(CCC=C(C)C)C=C2 (stereo not shown) [CBC, cannabichromene]
anti-inflammatory properties in an in vitro model of allergic contact dermatitis [1]: some anti-inflammatory benefits | pain and inflammation associated with collagen-induced osteoarthritis [2]: block pain and inflammation

C=C(C)[C@@H]1CCC(C)=C[C@H]1c1c(O)cc(CCCCC)cc1O [CBD, cannabidiol, reference compound]
anti-inflammatory properties in an in vitro model of allergic contact dermatitis [1]: potent anti-inflammatory properties

C=C(C)[C@@H]1CCC(C)=C[C@H]1c1c(O)cc(CCC)cc1O [CBDV, cannabidivarin]
anti-inflammatory properties in an in vitro model of allergic contact dermatitis [1]: some anti-inflammatory benefits

CCCCCc1cc(O)c(C/C=C(\C)CCC=C(C)C)c(O)c1 [CBG, cannabigerol]
anti-inflammatory properties in an in vitro model of allergic contact dermatitis [1]: some anti-inflammatory benefits | antibacterial effect against MRSA strains resistant to several classes of drugs [3]: effective antibacterial agent | inflammation characteristics in animal experiments [4]: effective in decreasing the inflammation characteristics

CCCCCc1cc(O)c2c(c1)OC(C)(C)[C@@H]1CCC(C)=C[C@@H]21 [THC, tetrahydrocannabinol]
anti-inflammatory potency relative to aspirin [5]: twenty times | anti-inflammatory potency relative to hydrocortisone [5]: twice | cyclooxygenase (COX) inhibition (cyclooxygenase (COX)): without any cyclooxygenase (COX) inhibition
